Test results from ChEMBL document CHEMBL1201862, “PubChem BioAssay data set” (2004).
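Values below derive from 48-hour exposures of cells grown in 96-well plates, with endpoints linearly interpolated between the two concentrations bracketing the appropriate inhibition level. The concentration for 50% growth inhibition is given as GI50.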 Calls of active or inactive are those of the source. No stated cut-off is given here; in the data, active = GI50 up to about 1.1 µM and inactive = higher.

Assays:
Assay in all cases: growth of human tumour cells (NCI), 48 h
[1] = system: IGROV-1
[2] = system: SN12C
[3] = system: EKVX
[4] = system: SF-295
[5] = system: HCT-15
[6] = system: 786-0
[7] = system: SNB-75
[8] = system: NCI-H460
[9] = system: Malme-3M
[10] = system: HL-60
[11] = system: CCRF-CEM
[12] = system: SK-MEL-2
[13] = system: NCI-H23
[14] = system: SK-OV-3
[15] = system: SW-620
[16] = system: SK-MEL-5

SMILES | GI50 [1] | GI50 [2] | GI50 [3] | GI50 [4] | GI50 [5] [µM] | GI50 [6] | GI50 [7] | GI50 [8] | GI50 [9] | GI50 [10] | GI50 [11] | GI50 [12] | GI50 [13] | GI50 [14] | GI50 [15] | GI50 [16]
O=[N+]([O-])c1ccc(/C=N/C23CC4CC(CC(C4)C2)C3)cc1 | > 100 µM (inactive) | > 100 µM (inactive) | > 100 µM (inactive) | > 100 µM (inactive) | > 100 | > 100 µM (inactive) | > 100 µM (inactive) | > 100 µM (inactive) | > 100 µM (inactive) | 71.3 µM (inactive) | 80.4 µM (inactive) | > 100 µM (inactive) | > 100 µM (inactive) | > 100 µM (inactive) |  | 
O=C1c2c(c3c4ccccc4n(CC4CO4)c3c3[nH]c4ccccc4c23)C(=O)N1Cc1ccccc1 (stereo not given) | 67 µM (inactive) | > 100 µM (inactive) |  | > 100 µM (inactive) | > 100 | > 100 µM (inactive) | > 10 µM (inactive) | 89.5 µM (inactive) | > 100 µM (inactive) | > 100 µM (inactive) | > 100 µM (inactive) | > 100 µM (inactive) | > 100 µM (inactive) | > 100 µM (inactive) | 77.6 µM (inactive) | > 10 µM (inactive)
CC1=NN(C(=O)Cc2ccccc2)C(=O)/C1=C\c1ccc([N+](=O)[O-])cc1 | > 100 µM (inactive) | > 100 µM (inactive) | > 100 µM (inactive) | > 100 µM (inactive) | > 100 | > 100 µM (inactive) |  | > 100 µM (inactive) | > 100 µM (inactive) |  | > 100 µM (inactive) | > 100 µM (inactive) | > 100 µM (inactive) | > 100 µM (inactive) | > 100 µM (inactive) | > 100 µM (inactive)
N#CCN1C(=O)c2cc([N+](=O)[O-])cc3cc([N+](=O)[O-])cc(c23)C1=O | 13.2 µM (inactive) | 13.1 µM (inactive) | 23.6 µM (inactive) | 30.5 µM (inactive) | 6.71 | 11.8 µM (inactive) | 26.1 µM (inactive) | 14.9 µM (inactive) | 14.8 µM (inactive) | 3.21 µM (inactive) | 2.77 µM (inactive) | 3.94 µM (inactive) | 15.9 µM (inactive) | 39.6 µM (inactive) | 7.53 µM (inactive) | 15.6 µM (inactive)
O=c1c2ccccc2nc(-c2cccc(Cl)c2)n1NCC1(O)OCC(O)C(O)C1O (stereo not given) |  | > 100 µM (inactive) | > 100 µM (inactive) | > 100 µM (inactive) | > 100 | > 100 µM (inactive) | > 10 µM (inactive) | > 100 µM (inactive) | > 100 µM (inactive) | 30.7 µM (inactive) | 41.7 µM (inactive) | > 100 µM (inactive) | > 100 µM (inactive) | > 100 µM (inactive) | > 100 µM (inactive) | > 10 µM (inactive)
CCOC(=O)CC(C)C1(C(=O)OCC)CCCCC1=O (stereo not given) | > 100 µM (inactive) | > 100 µM (inactive) | > 100 µM (inactive) | > 100 µM (inactive) | 22.9 | 55 µM (inactive) | > 100 µM (inactive) | > 100 µM (inactive) | > 100 µM (inactive) | > 100 µM (inactive) | > 100 µM (inactive) | > 100 µM (inactive) |  | > 100 µM (inactive) |  | > 100 µM (inactive)
CN1C(=O)N(c2nc3ccccc3[nH]2)C(C)(C)C1=O | > 100 µM (inactive) | > 100 µM (inactive) | > 100 µM (inactive) | > 100 µM (inactive) | > 100 | > 100 µM (inactive) | > 100 µM (inactive) |  | > 100 µM (inactive) | > 100 µM (inactive) | > 100 µM (inactive) | > 100 µM (inactive) | > 100 µM (inactive) | > 100 µM (inactive) | > 100 µM (inactive) | > 100 µM (inactive)
CCOC(=O)C1=C(C)N(c2ccc(C)cc2)C2=C(C(=O)N(c3ccccc3)C2c2ccccc2)C1c1ccccc1 (stereo not given) | > 25 µM (inactive) | > 25 µM (inactive) | > 25 µM (inactive) | 22.2 µM (inactive) | > 25 | > 25 µM (inactive) | 1.51 µM (inactive) | 13.3 µM (inactive) | > 25 µM (inactive) | > 25 µM (inactive) | 20.8 µM (inactive) | > 25 µM (inactive) | 11.9 µM (inactive) |  | > 25 µM (inactive) | 16.5 µM (inactive)
CCOC(=O)c1[nH]c(COC(C)=O)c(CCCOC(C)=O)c1CCCOC(C)=O | > 100 µM (inactive) | > 100 µM (inactive) | > 100 µM (inactive) | > 100 µM (inactive) | > 100 | > 100 µM (inactive) |  | > 100 µM (inactive) | > 100 µM (inactive) | > 100 µM (inactive) | > 100 µM (inactive) | > 100 µM (inactive) | > 100 µM (inactive) | > 100 µM (inactive) | > 100 µM (inactive) | 
OCc1cc2c(cn1)[nH]c1ccc(NCc3ccccc3)cc12 | 43 µM (inactive) | 34.9 µM (inactive) | 37.1 µM (inactive) | 22.3 µM (inactive) | 27.2 | 25.2 µM (inactive) | 25.5 µM (inactive) | 24.4 µM (inactive) | 28.7 µM (inactive) | 12.1 µM (inactive) | 20.7 µM (inactive) | 40.2 µM (inactive) | 20 µM (inactive) | 25.5 µM (inactive) | 27.4 µM (inactive) | 12.2 µM (inactive)
COc1ccc(Cc2c3cc(O)c([O-])cc3cc[n+]2C)cc1 | 30.3 µM (inactive) | 21 µM (inactive) | > 73.6 µM (inactive) | 19.9 µM (inactive) |  | 10.2 µM (inactive) | 48.2 µM (inactive) | 5.68 µM (inactive) | 30.7 µM (inactive) | 16.3 µM (inactive) | 4.95 µM (inactive) | 65.9 µM (inactive) | 29.8 µM (inactive) | 41.5 µM (inactive) | 36.1 µM (inactive) | 20.6 µM (inactive)
O=C1OC(c2ccccc2)=N/C1=C/NC(Cc1ccccc1)C(=O)O (stereo not given) | > 100 µM (inactive) | > 100 µM (inactive) | > 100 µM (inactive) | > 100 µM (inactive) | > 100 | > 100 µM (inactive) | 50.8 µM (inactive) | > 100 µM (inactive) | > 100 µM (inactive) | > 100 µM (inactive) | > 100 µM (inactive) | > 100 µM (inactive) | > 100 µM (inactive) | > 100 µM (inactive) | > 100 µM (inactive) | > 100 µM (inactive)
COc1ccc(/C=C/c2nnc(S)[nH]2)cc1OC | > 100 µM (inactive) | > 100 µM (inactive) |  | > 100 µM (inactive) | > 100 | > 100 µM (inactive) | > 100 µM (inactive) | > 100 µM (inactive) | > 100 µM (inactive) | > 100 µM (inactive) | > 100 µM (inactive) | > 100 µM (inactive) | > 100 µM (inactive) |  | > 100 µM (inactive) | > 100 µM (inactive)
COc1cc(CO)cc2c1[nH]c1ccccc12 [KOENOLINE] | > 25 µM (inactive) | > 25 µM (inactive) |  |  | > 25 | > 25 µM (inactive) |  | 24.4 µM (inactive) | > 25 µM (inactive) | > 25 µM (inactive) | > 25 µM (inactive) | > 25 µM (inactive) |  | > 25 µM (inactive) | > 25 µM (inactive) | > 25 µM (inactive)
